Results as given in patent US20260159474A1, “Aminoindane Compounds and Compositions and Methods of Their Therapeutic Use” (Solvonis Therapeutics Ireland Holdings Limited, priority 2021, published 2026).
Entries after “also recorded” stand apart in the source; their conditions may differ.

Assays:
[1] = test system: DA release in rat synaptosomes; assay: Dopamine release assay in rat striatal synaptosomes; assay type: biochemical; conditions: % of maximal release with 50 μM MDMA, n=2
Method: (§1) Methods-Evaluation of Monoamine Release: The potency of therapeutic compounds for stimulating DA release was measured by an endpoint release filtration assay in a 96-well format using rat synaptosomes, essentially as described by Sandtner et al. (Mol Pharmacol., 2016; 89(1):165-75.) and Baumann et al. (Neuropsychopharmacol, 2013; 38:552-562.) with some variations. One male rat was euthanized, and striatum/cortex regions were dissected over ice. The striatum portions were weighed and put in a glass tube containing ice-cold 0.32 M sucrose (dilution 1:24 w/v) for homogenization, while the frontal cortex tissue was diluted in ice-cold 0.32 M sucrose, 1:20 w/v. Tissues were homogenized and centrifuged for 10 mins at 1000×g. The two supernatants from striatum and cortex (crude synaptosomes) were retained on ice until use.
(§2) Test compounds were then serially diluted 1:4 in neat DMSO as concentration-response curves (CRC) of 11 points. To each well of a 2-mL 96 deep-well plate (Whatman UNIPLATE 96 well) were added: 2 μL of a concentration-response curve (CRC) of test compounds or 2 μL of DMSO (no-release condition) or 2 μL of MDMA 10 mM solution (final 50 μM, for maximal release), followed by 200 μL/well of complete Krebs-phosphate buffer (126 mM NaCl, 2.4 mM KCl, 0.83 mM CaCl2), 0.8 mM MgCl2, 0.5 mM KH2PO4, 0.5 mM Na2SO4, 11.1 mM glucose, 0.05 mM pargyline, 1 mg/mL ascorbic acid, freshly added, pH 7.4), containing 1 μM reserpine to block vesicular uptake of substrate. Desipramine (100 nM) and citalopram (100 nM) were also added to the release assay buffer in order to inhibit NET and SERT uptake, respectively. The final compound dilution, then, was 1:200 in 0.5% DMSO.
3H-Dopamine was added to the tube containing the crude striatal synaptosomes preparation, diluted 1:20 (v/v) in complete Krebs-phosphate buffer, and was incubated at RT and gently mixed for 60 minutes. Then, 200 μL/well of 3H-DA loaded synaptosomes were dispensed to the compound plate (final 400 μL/well), and the release reaction proceeded for an additional 15 minutes at RT. The release was terminated by vacuum filtration and washing three times with 1 mL of saline solution (NaCl 0.9%) at RT. The retained radioactivity was counted in a scintillation counter after the addition of 50 μL/well Microscint-20.
(§3) The raw data (cpm) from residual radioactivity onto the filter were elaborated for the determination of pEC50/EC50 values. Specifically, the compound effect was expressed as the percent of maximal release obtained with 50 μM MDMA (100% release) in comparison to vehicle (0.5% DMSO, 0% release). Both MDMA and D-amphetamine in CRC were used as internal controls in each release experiment. In each plate, for both 0% and 100% of release, the signal window was monitored and Z′ calculations were determined using the raw data of four replicates. 5-HT release was calculated in an identical fashion, except that 5 nM 3H-serotonin was added to crude cortex synaptosomes preparation diluted 1:13 (v/v) in complete Krebs-phosphate buffer containing 1 μM Reserpine, 100 nM GBR12909 and 100 nM nomifensine to block vesicular, DAT, and NET uptake, respectively. Synaptosomes were then loaded with 3H-5HT for 60 minutes at RT. After dispensing loaded synaptosomes onto a compound plate (200 μL/well), the release reaction proceeded for an additional 15 minutes. Stop by filtration, counting, and data elaboration were performed as described for DA release. Compounds were tested in duplicate (n=2).

[2] = test system: 5-HT release in rat synaptosomes; assay: Serotonin release assay in rat cortex synaptosomes; assay type: biochemical; conditions: for 5-HT Release (pEC50): rat cortex synaptosomes, % of maximal release with 50 μM MDMA, n=2; for SERT/DAT Release Ratio: ratio of 5-HT and DA release potency, rat synaptosomes
Method: as §1, §2, §3

[3] = Intrinsic clearance in human liver microsomes; assay type: in vitro ADME; conditions: for microsomal CLint at 0.5 μM: pH 7.4, read-out: Cl (μL/min/mg protein) - Human Microsomes
Method: Methods: The general procedure involved incubating test compounds with liver microsomes and subsequently detecting the compounds to determine intrinsic clearance. Clearance was estimated from the rate of depletion k (min-1), the volume of the incubation V (mL), and the amount of microsomal proteins in the incubation M (mg). Intrinsic clearance is defined by the following equation: Clint=k*V/M.
Values for CLint are expressed as μL/min/mg liver microsomes. Verapamil and dextromethorphan were used as positive controls for CYP3A4 and CYP2D6 isoforms, respectively, to confirm metabolic activity. Stock solutions were prepared in DMSO for therapeutic compounds and positive controls verapamil and dextromethorphan (10 mM for all). Working solutions were prepared by diluting stock in MeOH to reach […]. However, this concentration can be varied, e.g., when the test item is not soluble in the selected solvent.
Prior to experimentation, frozen liver microsomes were thawed in a water bath at 37° C. and kept on ice until use. The microsomes were then diluted with 50 mM potassium phosphate buffer pH 7.4 to a protein concentration of 0.56 mg/mL. To prepare test and control items in final incubation conditions, 5 μL of test compound and positive control working solutions were added to 445 μL of microsomes incubation mixture at 0.56 mg/mL and 50 μL of regenerating system.
As it relates to the automated incubation procedure for microsomes incubation, the following procedure was followed. Briefly, 150 μL of quenching solution (ACN containing an appropriate Internal Standard, i.e. Rolipram and Diclofenac for positive and negative ion mode, respectively) was manually dispensed or dispensed by using the Hamilton system in each well of 96 deep well 1 mL plates. Next, 800-1000 μL-aliquots of NADPH regenerating system were pre-warmed at 37° C. for 5 minutes. 5 μL of 50 µM test items and control were added to 445 μL of the 0.56 mg/mL microsomes solution, and the incubation mixture was pre-warmed in a 96 deep well 2 mL plate (incubation plate) at 37° C. for 5 minutes. The incubation reactions were initiated by adding 50 μL of pre-warmed NADPH regenerating system to the incubation mixtures.
50 μL-aliquots were sampled from incubation mixtures at: 0, 3, 10, 15, 30, and 45 minutes. The samples were centrifuged at 3,000 rpm for 10 minutes and further diluted in order to optimize the analytical condition prior to the LC MS/MS or Rapid Fire-MS/MS analysis. Incubations of test items were run in duplicate (n=2) with a single positive control (n=1). For sample analysis, an LC-MS/MS system was used to monitor the test samples/control to internal standard peak area ratios as representative of the test or control item's concentration. Data from test item incubation was processed to give mean values where applicable. Metabolic stability was calculated from the ratio of peak area of the remaining test or control item with internal standard versus time.
Peak areas for test and control items were integrated using Integrator Software from Agilent or Analyst or MultiQuant Software from AB SciexTM and were exported to XLFit or Morphit (The Edge), which were designed to calculate in vitro metabolic stability parameters. The integrated peak areas of the test and control items at the selected time points were divided by the respective peak areas of the IS, and the percent of parent remaining was calculated by normalizing the peak area ratio of parent to IS at 0 min. Observed rate constant (kobs) for parent degradation was calculated by determining the slope of the line of the graph of the natural log of percentage parent remaining versus time of incubation. This was scaled for the protein in the incubation relative to that in the liver.

SMILES	DA Release (pEC50) [1]	5-HT Release (pEC50) [2]	SERT/DAT Release Ratio [2]	Cl (μL/min/mg protein) - Human Microsomes [3]	microsomal CLint at 0.5 μM [3] [µL/min/mg]
COC(=O)c1cc2c(cc1OC)CC(N)C2 (stereo not drawn) [CMP-401]	<4.0	5.5	>35	greater clearance in human microsomes relative to MDMA	87.2
COC(=O)COc1ccc2c(c1)CC(N)C2 (stereo not drawn) [CMP-402]	<4.0	5.0	>10	greater clearance in human microsomes relative to MDMA; also recorded: greatest clearance	758
COC(=O)c1ccc2c(c1)CC(N)C2 (stereo not drawn) [CMP-405, 2-aminoindane-5-methylcarboxylate]	5.6	6.1	3.2	greater clearance in human microsomes relative to MDMA	137
CNC(C)Cc1ccc2c(c1)OCO2 (stereo not drawn) [MDMA]	6.6	7.0	2.6	41 μL/min/mg protein	–
COc1ccc2c(c1)CC(N)C2 (stereo not drawn) [MEAI, 5-methoxy-2-aminoindane]	5.4	6.8	28	–	137
COc1cc2c(cc1C)CC(N)C2 (stereo not drawn) [MMAI, 5-methoxy-6-methyl-2-aminoindane]	4.6	7.4	575	–	46.7
